In patent publication US6531636B1, “Synthetic endogenous cannabinoids analogues and uses thereof” (priority 1998, dated 2003):

Experiments:
[1] = test system: pigeons suffering from emesia caused by cisplatin; test: Antiemetic activity, cisplatin-induced emesis in pigeons; assay type: in vivo; settings: subcutaneous
Protocol: The compounds of the invention were also evaluated for their potency as an antiemetic agent following the procedure described by Feigenbaum et al., [Eur. J. Pharmacol. 169:159-165 (1989, wherein pigeons suffering from emesia caused by an antineoplastic drug (cisplatin) were used as the model.
Accordingly, each compound was dissolved in Emulphor (detergent):ethanol:saline (5:5:90) and administered subcutaneously to the pigeons. The injection volume was 1.0 ml/kg body weight. Reduction of vomiting with 2-O-Arachidonyl glyceryl ether (HU-310) was 50% when using 3.0 mg of the active ingredient per kg body weight.

mice = test: Analgesia, standard hot plate test in mice; assay type: in vivo; settings: intravenous injection in tail vein
Protocol: The novel compounds prepared as described above were evaluated for their potency in […], according to the standard hot plate test, as briefly described hereinafter.
The compounds of the invention (HU-310, HU-313 and HU-314) wee dissolved in a detergent (Emulphomethanol:saline (5:5:90)) mixture and administered by intravenous injection in the tail vein of mice with an injection volume of 0.1 ml/10 g of body weight.

[2] = test system: rats, mean arterial pressure; test: Hypotensive effect in non-anaesthetized cannulated rats; assay type: in vivo; settings: dose 12 mg/Kg
Protocol: To evaluate the potency of the compounds of the present invention as anti-hypertension agents, each compound was dissolved in a mixture of ethanol:emulphor:saline (1:1:18) and administered to non-anaestisized rats, cannulated through the aorta (for injection) and the jugular view (for measurements of blood pressure). […]

[3] = test system: rabbits with chymotrypsin-induced glaucoma; test: Antiglaucoma activity, chymotrypsin-induced stable glaucoma in rabbits; assay type: in vivo; settings: 0.01% in aqueous solution
Excerpt: Each compound was further evaluated for their potency as agent for treating and/or preventing glaucoma. Accordingly, stable glaucoma was induced in rabbits by injecting into the eye δ-chymotrypsin as described by Mechoulam R. et al., [Mechoulam R. et al., The Therapeutic Potential of Marihuana eds S. Cohen, R. C. Stillman Plenum Press, N.Y., pp. 35-48 (1975)]. As a control, pilocarpine, a standard antiglaucoma drug, was employed showing intraocular pressure (I.O.P.) reduction at a concentration of 0.01% in aqueous solution and provided a period of 30 hours delay in the recovery of the original chymotrypsin-induced IOP.
The compounds of the invention were each dissolved in a detergent (Emulphor:ethanol:saline (5:5:90)) mixture and then further diluted with saline to obtain the desired concentrations.

CB1 receptor = biological target: T1, CB1 receptor (Rattus norvegicus, UniProt P20272); test: Competitive inhibition of [3H]HU-243 binding to CB1, synaptosomal membranes; settings: [3H]HU-243 60 pM, synaptosomal membrane protein
T1 construct: 4 μg of synaptosomal membrane protein were homogenized in 50 mM Tris-HCl; from tissue; host or cells: synaptosomal membranes (brain tissue)
Protocol: In principle, 4 μg of synaptosomal membrane protein were homogenized in 50 mM Tris-HCl, 2 mM MgCl2 and 1 mM EDTA pH 7.4 to obtain the binding mixture having a final concentration of 60 pM, with which the Ki was determined according to the assay described by Devane et al. [Devane et al. (1992) ibid.]. […] Ki values were calculated according to following known equation: Ki-IC50/(1+[L]/Kd) wherein IC50 is the concentration of a compound that will reduce a specific binding of a given radioligand by 50%; [L] is the concentration of the radioligand used in the assay and Kd is the dissociation constant for the radioligand (see also FIG. 3).

[4] = test system: female mice, arachidonic acid-induced paw swelling; test: Arachidonic acid-induced paw edema in mice; assay type: in vivo; settings: paw volume 30 min after arachidonic acid
Protocol: The potency of each of the compounds of the invention were evaluated for their potency to act as anti-inflammatory agents, according to the method described Calhoun W. et al., [Calhoun W. et al. Agents and Actions 21:306-309 (1987)]. In the method, water was substituted for mercury as the displacement medium. Platelet Activating Factor (PAF) (1.0 μg) or arachidonic acid (1.0 mg) dissolved in […] of a saline buffer containing 5% ethanol were injected subcutaneously into the plantar surface of the right hind paw of ether anaesthetized female mice (20-25 gr). The volume of the right foot was measured to the level of the lateral malleous by water displacement before treatment and 15 min after PAF injection or 30 min after arachidonic injection. The change in paw volume was calculated for each mouse. Table 2 presents the inhibition of archidonic acid induced paw swelling. The values obtained are measured as the increase in paw volume using a plethysmometer. The degree of swelling was expressed as the percentage in drug-treated mice compared to inhibition of paw edema from vehicle (Emulphor:ethanol:saline) treated controls (95% significance by ANOVA. N=5 mice/group). Control animals received peanut oil (50 μl).

T1 sequence (P20272 whole entry): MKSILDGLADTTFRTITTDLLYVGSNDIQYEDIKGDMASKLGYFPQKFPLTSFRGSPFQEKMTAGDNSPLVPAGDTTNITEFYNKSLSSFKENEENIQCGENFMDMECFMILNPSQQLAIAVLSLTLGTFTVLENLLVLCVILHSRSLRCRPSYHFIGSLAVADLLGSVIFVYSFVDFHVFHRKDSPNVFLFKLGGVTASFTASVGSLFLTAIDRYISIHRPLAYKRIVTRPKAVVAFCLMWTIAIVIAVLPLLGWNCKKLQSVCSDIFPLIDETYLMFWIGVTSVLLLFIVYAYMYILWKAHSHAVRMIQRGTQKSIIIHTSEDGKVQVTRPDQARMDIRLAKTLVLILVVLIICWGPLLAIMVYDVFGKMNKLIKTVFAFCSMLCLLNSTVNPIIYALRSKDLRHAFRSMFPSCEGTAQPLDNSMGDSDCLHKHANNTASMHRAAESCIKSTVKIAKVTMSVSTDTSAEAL

Compound | Analgesia, ED50 (mice) [mg/kg] | Latency to maximal effect [2] [min] | Maximal hypotension (difference in mean arterial pressure before and after drug) [2] [mm Hg] | Time of recovery [2] [min] | also measured
CCCCC/C=C\C/C=C\C/C=C\CCCCCCCOC(CO)CO [HU-314, 2-dihomo-γ-linolenyl glyceryl ether] | 4.6 | – | – | – | Reduction of vomiting (in words) ([1]; compared with HU-310): vomiting was also reduced, however to a lesser extent
CCCCC/C=C\C/C=C\C/C=C\C/C=C\CCCC(=O)OC(CO)CO [2-Ara-GL, 2-arachidonoyl glycerol] | – | 7.2 | 34 | 13.0 | –
CC[C@@H]1C(=O)OC[C@@H]1Cc1cncn1C [pilocarpine] | – | – | – | – | Delay in the recovery of the original chymotrypsin-induced IOP [3]: 30 h
CCCCC/C=C\C/C=C\C/C=C\C/C=C\CCCC(=O)NCCO [ANA, anandamide] | – | 2.0 | 15 | 7.0 | –
CCCCC/C=C\C/C=C\C/C=C\C/C=C\CCCCOC(CO)CO [HU-310, 2-O-Arachidonyl glyceryl ether] | 2.8 | 34.0 | 105 | 75.0 | Ki (CB1 receptor): 62.3 ± 3 nM; Reduction of vomiting ([1]; 3.0 mg per kg body weight): 50%; Inhibition of Arachidonic Acid-induced Paw Edema ([4]; dose 5 mg/kg): 70.2%; Inhibition of Arachidonic Acid-induced Paw Edema ([4]; dose 10 mg/kg): 92.2%; Inhibition of Arachidonic Acid-induced Paw Edema ([4]; dose 25 mg/kg): 100.0%
